# Values of other authors as cited in patent publication US10874605B2, “Extended release biodegradable ocular implants” (Allergan, Inc., priority 2004, dated 2020).
# Conditions: efficacy in vivo
structure (smiles),measurement,value
C[C@]12CCC(=O)C=C1CC[C@@H]1[C@@H]2[C@@H](O)C[C@@]2(C)[C@H]1CC[C@]2(O)C(=O)CO [hydrocortisone],dose equivalent to a 1 mg dose of dexamethasone,25 mg
same,potency relative to dexamethasone,approximately twenty five fold less potent than dexamethasone
